From patent US20200270225A1, “Chiral Diacylhydrazine Ligands for Modulating the Expression of Exogenous Genes via an Ecdysone Receptor Complex” (Intrexon Corporation, priority 2007, published 2020)
Read-outs that look alike come from different tables or passages of the source.

How the values were obtained:
[1] = biological target: T1, [V390I/Y410E/E274V]-CfEcR (Choristoneura fumiferana, UniProt O77240); assay type: cell-based; settings: 3T3 Cells; for RMFI (relative maximum fold induction): relative to GS-E ligand
T1 construct: assay construct b835
Protocol: (§1) Cellular gene switch assays were performed by transiently transfecting the following constructs in mouse embryonic fibroblast cells (NIH3T3). The wild-type D, E and F domains from Choristoneura fumiferana EcR or its V390I/Y410E/E274V mutant were fused to GAL4-DBD and placed under the control of the CMV promoter in the pBIND vector (Promega Corporation, Madison, Wis., USA). The DEF domains of EcRs shown were amplified using primers designed based on 20-25 nt sequences at the 5′ and 3′ ends. Restriction enzyme sites EcoR I/BamH I and Xba I were added to 5′ and 3′ primers respectively. The PCR products were digested with appropriate restriction enzymes and cloned into pBIND vector. The EcR LBDs cloned into pBIND vector were verified by sequencing. A chimeric RXR from Homo sapiens RXRP and Locusta migratoria RXR, fused to VP16-AD and placed under the control of an SV40e promoter, was constructed as previously described (Kumar P & Katakam A in Gene Transfer, Friedmann T and Rossi J, eds, pp. 643-651 (2007), Cold Spring Harbor Laboratory Press, Cold Spring Harbor, N.Y.). The inducible luciferase reporter plasmid pFRLuc (Stratagene Cloning Systems, La Jolla, Calif., USA), contains five copies of the GAL4 response element and a synthetic minimal promoter.
(§2) NIH3T3 cells were maintained at 37′C and 5% CO2 in Dulbecco's modified Eagle's medium (DMEM) supplemented with 10% bovine calf serum, both obtained from Mediatech Inc., Manassas, Va. Cells were planted in a 96-well plate at a density of 2,500 cells/well in 50 μL of growth medium. The following day cells were first treated with 35 μL of serum-free DMEM containing dimethyl sulfoxide (DMSO; control) or a DMSO solution containing ligand. Cells were then transfected with 15 μl of serum-free DMEM containing 0.04 μg of EcR construct, 0.04 ug of RXR construct, and 0.16 μg of luciferase reporter construct per well, using SuperFect™ transfection reagent (Qiagen Inc., Valencia, Calif., USA) according to the manufacturer's instructions. Ligands were tested at 8 doses from 0.01-33 μM and the final DMSO concentration was 0.33% in both control and treatment wells. After a 48 hour post-treatment and transfection incubation, the cells were assayed for luciferase activity using the Bright-Glo™ Luciferase Assay System (Promega Corporation, Madison, Wis., USA) following the manufacturer's instructions. EC50 values were measured minimally in duplicate.
(§3) Luciferase reporter gene expression was measured 48 h after cell treatment using Bright-Glo™ Luciferase Assay System from Promega (E2650). Luminescence was detected at room temperature using a Dynex MLX microtiter plate luminometer.
(§4) Each assay was conducted in two separate wells, and the two values were averaged. Fold inductions were calculated by dividing relative light units (“RLU”) in ligand treated cells with RLU in DMSO treated cells. EC50s were calculated from dose response data using a three-parameter logistic model. Relative Max FI was determined as the maximum fold induction of the tested ligand (an embodiment of the invention) observed at any concentration relative to the maximum fold induction of GS™-E ligand (3,5-dimethyl-benzoic acid N-tert-butyl-N′-(2-ethyl-3-methoxy-benzoyl)-hydrazide) observed at any concentration.

[2] = biological target: wild-type Choristoneura fumiferana EcR (D, E and F domains) (Choristoneura fumiferana, UniProt O77240); assay type: cell-based; settings: WT-CtEcR, 3T3 Cells; for RMFI (relative maximum fold induction): relative to GS-E ligand
Protocol: as §1, §2, §3, §4

SMILES	EC50 ([1]; R) [nM]	RMFI (relative maximum fold induction) ([1]; R)	EC50 ([2]; R) [nM]	RMFI (relative maximum fold induction) ([2]; R)	EC50 ([1]; S) [nM]	RMFI (relative maximum fold induction) ([1]; S)	EC50 ([2]; S) [nM]	RMFI (relative maximum fold induction) ([2]; S)	other results
CCCC(N(NC(=O)OC(C)(C)C)C(=O)c1cc(C)cc(C)c1)C(C)(C)C (racemic) [rac-49, rac-N′-(1-tert-Butyl-butyl)-N′-(3,5-dimethyl-benzoyl)-hydrazinecarboxylic acid tert-butyl ester]	–	–	–	–	–	–	–	–	EC50 ([1]; rac): ~4000 nM; RMFI (relative maximum fold induction) ([1]; rac): 0.50; EC50 ([2]; rac): > 33000 nM; RMFI (relative maximum fold induction) ([2]; rac): 0.02
CCCC(N(NC(=O)c1cccc(OC)c1C)C(=O)c1cc(OC)c(C)c(OC)c1)C(C)(C)C (racemic) [rac-51]	–	–	–	–	–	–	–	–	EC50 ([1]; rac, read-out: EC50): 15 nM; RMFI (relative maximum fold induction) ([1]; rac): 0.81; EC50 ([2]; rac, read-out: EC50): 80.2 nM; RMFI (relative maximum fold induction) ([2]; rac): 0.82
C=CCC(C1CCCCC1)N(NC(=O)c1cccc(OC)c1C)C(=O)c1cc(C)cc(C)c1 (racemic) [rac-60]	–	–	–	–	–	–	–	–	EC50 ([1]; rac, read-out: EC50): ~200 nM; RMFI (relative maximum fold induction) ([1]; rac): 0.73; EC50 ([2]; rac, read-out: EC50): ~1000 nM; RMFI (relative maximum fold induction) ([2]; rac): 0.49
C=CCC(C1CCCCC1)N(NC(=O)c1cccc(OC)c1C)C(=O)c1cc(OC)c(C)c(OC)c1 (racemic) [rac-61]	–	–	–	–	–	–	–	–	EC50 ([1]; rac, read-out: EC50): 521 nM; RMFI (relative maximum fold induction) ([1]; rac): 0.39; EC50 ([2]; rac, read-out: EC50): ~3300 nM; RMFI (relative maximum fold induction) ([2]; rac): 0.31
C=CCC(CCc1ccccc1)N(NC(=O)c1ccc(CC)cc1)C(=O)c1cc(C)cc(C)c1 (racemic) [rac-62]	–	–	–	–	–	–	–	–	EC50 ([1]; rac, read-out: EC50): 2110 nM; RMFI (relative maximum fold induction) ([1]; rac): 0.67; EC50 ([2]; rac, read-out: EC50): ~5000 nM; RMFI (relative maximum fold induction) ([2]; rac): 0.06
C=CC[C@@H](N(NC(=O)OCc1ccccc1)C(=O)c1cc(C)cc(C)c1)C(C)(C)C [Example 1.5, (R)—N′-(1-tert-butyl-but-3-enyl)-N′-(3,5-dimethyl-benzoyl)-hydrazinecarboxylic acid benzyl ester]	~2000	0.36	> 10000	0.01	–	–	–	–	–
CCC[C@@H](N(NC(=O)c1ccccc1OC)C(=O)c1cc(C)cc(C)c1)C(C)(C)C [Example 4, (R)-3,5-Dimethyl-benzoic acid N-(1-tert-butyl-butyl)-N′-(2-meihoxy-benzoyl)-hydrazide]	99	0.52	993	0.38	–	–	–	–	–
CCC[C@@H](N(NC(=O)c1cc(OC)c(C)c(OC)c1)C(=O)c1cc(C)cc(C)c1)C(C)(C)C [Example 19, (R)-3,5-Dimethyl-benzoic acid N-(1-tert-butyl-butyl)-N′-(3,5-dimethoxy-4-methyl-benzoyl)-hydrazide]	~2000	0.37	~5000	0.09	–	–	–	–	–
CCC[C@@H](N(NC(=O)c1ccc2c(c1C)OCO2)C(=O)c1cc(C)cc(C)c1)C(C)(C)C [Example 20, (R)-3,5-Dimethyl-benzoic acid N-(1-tert-butyl-butyl)-N′-(4-methyl-benzo[1,3]dioxole-5-carbonyl)-hydrazide]	0.26	1.01	7.6	1.02	–	–	–	–	–
CCC[C@@H](N(NC(=O)c1cccs1)C(=O)c1cc(C)cc(C)c1)C(C)(C)C [Example 25, (R)-3,5-Dimethyl-benzoic acid N-(1-tert-butyl-butyl)-N′-(thiophene-2-carbonyl)-hydrazide]	~20	0.72	432	0.42	–	–	–	–	–
CCC[C@@H](N(NC(=O)c1cc(C)oc1C)C(=O)c1cc(C)cc(C)c1)C(C)(C)C [Example 26, (R)-3,5-Dimethyl-benzoic acid N-(1-tert-butyl-butyl)-N′-(2,5-dimethyl-furan-3-carbonyl)-hydrazide]	99.4	0.95	~1000	1.16	–	–	–	–	–
CCC[C@@H](N(NC(=O)c1cccnc1Cl)C(=O)c1cc(C)cc(C)c1)C(C)(C)C [Example 27, (R)-3,5-Dimethyl-benzoic acid N-(1-tert-butyl-butyl)-N′-(2-chloro-pyridine-3-carbonyl)-hydrazide]	7	0.73	95.2	0.70	–	–	–	–	–
CCC[C@@H](N(NC(=O)c1ccc(Cl)nc1)C(=O)c1cc(C)cc(C)c1)C(C)(C)C [Example 28, (R)-3,5-Dimethyl-benzoic acid N-(1-tert-butyl-butyl)-N′-(6-chloro-pyridine-3-carbonyl)-hydrazide]	~20	0.78	243	0.38	–	–	–	–	–
CCC[C@H](N(NC(=O)c1ccccc1)C(=O)c1cc(C)cc(C)c1)C(C)(C)C [Example 32]	–	–	–	–	267	0.38	~3300	0.19	–
CCC[C@H](N(NC(=O)c1ccccc1C)C(=O)c1cc(C)cc(C)c1)C(C)(C)C [Example 33, (S)-3,5-Dimethyl-benzoic acid N-(1-tert-butyl-butyl)-N′-(2-methyl-benzoyl)-hydrazide]	–	–	–	–	~400	0.48	~3300	0.20	–
CCC[C@H](N(NC(=O)c1ccccc1F)C(=O)c1cc(C)cc(C)c1)C(C)(C)C [Example 34, (S)-3,5-Dimethyl-benzoic acid N-(1-tert-butyl-butyl)-N′-(2-fluoro-benzoyl)-hydrazide]	–	–	–	–	86	0.64	529	0.41	–
CCC[C@H](N(NC(=O)c1ccccc1Cl)C(=O)c1cc(C)cc(C)c1)C(C)(C)C [Example 35, (S)-3,5-Dimethyl-benzoic acid N-(1-tert-butyl-butyl)-N′-(2-chloro-benzoyl)-hydrazide]	–	–	–	–	~20	0.77	~1000	0.44	–
CCC[C@H](N(NC(=O)c1ccccc1Br)C(=O)c1cc(C)cc(C)c1)C(C)(C)C [Example 36, (S)-3,5-Dimethyl-benzoic acid N′-(2-bromo-benzoyl)-N-(1-tert-butyl-butyl)-hydrazide]	–	–	–	–	433	0.36	~3300	0.11	–
CCC[C@H](N(NC(=O)c1cccc(C)c1)C(=O)c1cc(C)cc(C)c1)C(C)(C)C [Example 37, (S)-3,5-Dimethyl-benzoic acid N-(1-tert-butyl-butyl)-N′-(3-methyl-benzoyl)-hydrazide]	–	–	–	–	292	0.47	~3300	0.22	–
CCC[C@H](N(NC(=O)c1ccc(C)cc1)C(=O)c1cc(C)cc(C)c1)C(C)(C)C [Example 38, (S)-3,5-Dimethyl-benzoic acid N-(1-tert-butyl-butyl)-N′-(4-methyl-benzoyl)-hydrazide]	–	–	–	–	341	0.44	2170	0.25	–
CCC[C@H](N(NC(=O)c1ccc(CC)cc1)C(=O)c1cc(C)cc(C)c1)C(C)(C)C [Example 39, (S)-3,5-Dimethyl-benzoic acid N-(1-tert-butyl-butyl)-N′-(4-ethyl-benzoyl)-hydrazide]	–	–	–	–	~20	0.70	418	0.29	–
